One compound from US20030162187A1, “Method of detecting sexual differentiation disruptor” (priority 1999, published 2003) can be followed below.

The test system of the assay is Qurt medaka. Description: Detection of sexual differentiation-disrupting activity: eggs bred in test solution, genotypic sex by pigment, phenotypic sex by RT-PCR of female-specific Gene 5. The format is in vivo, medaka (Oryzias latipes). The settings on record: fries hatched from eggs treated with 1 ppb 17 β-estradiol. As to the method:
Pairs of mature Qurt medakas each consisting of one male and one female were bred in 3 L of green water (purified water containing chlorella from green algae) at 25° C. under conditions of a light period for 14 hours and a dark period for 10 hours. They were fed with TetraMin three to five times a day setting the amount of TetraMin such that it was consumed within three to five minutes,;and then spawned. Eggs resulted from five pairs were placed in a Petri dish immediately after spawning, separated each other using tweezers in tap water from which chlorine had been removed and washed. The water was replaced by a 1 -ppb 17 β-estradiol (E2) aqueous solution containing 0.1% dimethyl sulfoxide. The mixture was dispensed into wells of 96-well round bottom microplate (#3797, Corning) which had been extensively washed with ultrapure water such that each well contained one egg. After covering with a lid, the microplate was incubated in an incubator at 25° C. On the third day from the start of incubation, males and females were distinguished by examining the yellow pigment which is expressed in a male-specific manner as autofluorescence using a fluorescence microscope (Nikon) The incubation was further continued, and fries then hatched on the 7th to 9th day after spawning. Fries were collected on the 12th day after spawning (the 3rd to 5th day after hatching), then soaked in RNAlater (#7021, Ambion) and stored at −80° C. RNAs were extracted from the fries using StrataPrep Total RNA Miniprep Kit (#400711, Stratagene). The test samples were soaked in a lysis solution attached to the kit, and homogenized in 1.5 -mL tubes using a pellet mixer (Urin Seisakusho). Then, extraction was completed according to the manual attached to the kit. The extracted RNAs were subjected to TaKaRa One Step RNA PCR Kit (AMV) (Takara Shuzo). 1st PCRs were carried out using a pair of primers F1 (SEQ ID NO: 30) and R1 (SEQ ID NO: 31) which is used to amplify a region of 729 bp in Gene 5 (SEQ ID NO: 5), a gene expressed in a female-specific manner. […]

In the case of `C[C@]12CC[C@@H]3c4ccc(O)cc4CC[C@H]3[C@@H]1CC[C@@H]2O` [17 β-estradiol], the “genotypic females for which expression of Gene 6 was not observed” value was “two out of the five”, the “genotypic males for which expression of Gene 5 was observed” value is given as “two out of the five” and the “sexual differentiation (genotypic vs phenotypic sex)” value is listed as “the sexual differentiation was disrupted”.
